BigSolDB 2.1

Cl.N/N=C(\N)NN
Conditions | solubility (mole fraction)
in THF, 273.15 K | 1.96e-05
in THF, 278.15 K | 2.74e-05
in THF, 283.15 K | 3.7e-05
in THF, 288.15 K | 5.17e-05
in THF, 293.15 K | 6.85e-05
in THF, 298.15 K | 9.12e-05
in THF, 303.15 K | 0.000119
in THF, 308.15 K | 0.000154
in THF, 313.15 K | 0.000209
in THF, 318.15 K | 0.000265
in THF, 323.15 K | 0.000333
in acetonitrile, 273.15 K | 7.35e-06
in acetonitrile, 278.15 K | 1.19e-05
in acetonitrile, 283.15 K | 1.4e-05
in acetonitrile, 288.15 K | 2.09e-05
in acetonitrile, 293.15 K | 2.72e-05
in acetonitrile, 298.15 K | 3.41e-05
in acetonitrile, 303.15 K | 5.02e-05
in acetonitrile, 308.15 K | 6.91e-05
in acetonitrile, 313.15 K | 8.3e-05
in acetonitrile, 318.15 K | 9.96e-05
in acetonitrile, 323.15 K | 0.000142
in ethanol, 273.15 K | 0.000112
in ethanol, 278.15 K | 0.000156
in ethanol, 283.15 K | 0.000207
in ethanol, 288.15 K | 0.0003
in ethanol, 293.15 K | 0.000373
in ethanol, 298.15 K | 0.00054
in ethanol, 303.15 K | 0.000666
in ethanol, 308.15 K | 0.000904
in ethanol, 313.15 K | 0.00119
in ethanol, 318.15 K | 0.00158
in ethanol, 323.15 K | 0.002
in ethyl acetate, 273.15 K | 1.56e-05
in ethyl acetate, 278.15 K | 2.2e-05
in ethyl acetate, 283.15 K | 3.03e-05
in ethyl acetate, 288.15 K | 4.16e-05
in ethyl acetate, 293.15 K | 5.57e-05
in ethyl acetate, 298.15 K | 7.51e-05
in ethyl acetate, 303.15 K | 0.000101
in ethyl acetate, 308.15 K | 0.00013
in ethyl acetate, 313.15 K | 0.000169
in ethyl acetate, 318.15 K | 0.000217
in ethyl acetate, 323.15 K | 0.000281
in isobutanol, 273.15 K | 2.22e-05
in isobutanol, 278.15 K | 3.04e-05
in isobutanol, 283.15 K | 4.2e-05
in isobutanol, 288.15 K | 5.88e-05
in isobutanol, 293.15 K | 7.77e-05
in isobutanol, 298.15 K | 0.000105
in isobutanol, 303.15 K | 0.000134
in isobutanol, 308.15 K | 0.000177
in isobutanol, 313.15 K | 0.000233
in isobutanol, 318.15 K | 0.000301
in isobutanol, 323.15 K | 0.000389
in isopropanol, 273.15 K | 2.41e-05
in isopropanol, 278.15 K | 3.39e-05
in isopropanol, 283.15 K | 4.68e-05
in isopropanol, 288.15 K | 6.35e-05
in isopropanol, 293.15 K | 8.43e-05
in isopropanol, 298.15 K | 0.000112
in isopropanol, 303.15 K | 0.000148
in isopropanol, 308.15 K | 0.000192
in isopropanol, 313.15 K | 0.000248
in isopropanol, 318.15 K | 0.000326
in isopropanol, 323.15 K | 0.000417
in methanol, 273.15 K | 0.00218
in methanol, 278.15 K | 0.00272
in methanol, 283.15 K | 0.00338
in methanol, 288.15 K | 0.00436
in methanol, 293.15 K | 0.00522
in methanol, 298.15 K | 0.00664
in methanol, 303.15 K | 0.00802
in methanol, 308.15 K | 0.00971
in methanol, 313.15 K | 0.0118
in methanol, 318.15 K | 0.0144
in methanol, 323.15 K | 0.0175
in n-butanol, 273.15 K | 3.27e-05
in n-butanol, 278.15 K | 4.64e-05
in n-butanol, 283.15 K | 6.17e-05
in n-butanol, 288.15 K | 8.36e-05
in n-butanol, 293.15 K | 0.000111
in n-butanol, 298.15 K | 0.000147
in n-butanol, 303.15 K | 0.000197
in n-butanol, 308.15 K | 0.000259
in n-butanol, 313.15 K | 0.000345
in n-butanol, 318.15 K | 0.000432
in n-butanol, 323.15 K | 0.000549
in n-heptane, 273.15 K | 1.74e-05
in n-heptane, 278.15 K | 2.52e-05
in n-heptane, 283.15 K | 3.41e-05
in n-heptane, 288.15 K | 4.7e-05
in n-heptane, 293.15 K | 6.36e-05
in n-heptane, 298.15 K | 8.63e-05
in n-heptane, 303.15 K | 0.000119
in n-heptane, 308.15 K | 0.000153
in n-heptane, 313.15 K | 0.000204
in n-heptane, 318.15 K | 0.000264
in n-heptane, 323.15 K | 0.000334
in n-hexane, 273.15 K | 1.77e-05
in n-hexane, 278.15 K | 2.5e-05
in n-hexane, 283.15 K | 3.47e-05
in n-hexane, 288.15 K | 4.69e-05
in n-hexane, 293.15 K | 6.58e-05
in n-hexane, 298.15 K | 8.84e-05
in n-hexane, 303.15 K | 0.000115
in n-hexane, 308.15 K | 0.000154
in n-hexane, 313.15 K | 0.000205
in n-hexane, 318.15 K | 0.000261
in n-hexane, 323.15 K | 0.00035
in n-propanol, 273.15 K | 4.25e-05
in n-propanol, 278.15 K | 5.9e-05
in n-propanol, 283.15 K | 7.94e-05
in n-propanol, 288.15 K | 0.00011
in n-propanol, 293.15 K | 0.000145
in n-propanol, 298.15 K | 0.000189
in n-propanol, 303.15 K | 0.000253
in n-propanol, 308.15 K | 0.000319
in n-propanol, 313.15 K | 0.000412
in n-propanol, 318.15 K | 0.000539
in n-propanol, 323.15 K | 0.000675
in water, 273.15 K | 0.0395
in water, 278.15 K | 0.0481
in water, 283.15 K | 0.0546
in water, 288.15 K | 0.0664
in water, 293.15 K | 0.0778
in water, 298.15 K | 0.0879
in water, 303.15 K | 0.101
in water, 308.15 K | 0.112
in water, 313.15 K | 0.127
in water, 318.15 K | 0.145
in water, 323.15 K | 0.161
